These results are taken from paper PMC7714403 (JCI Insight, 2020).

Usually IC50 stands for the concentration needed to halve the response being measured.

The subject of assay [1] is MOLM13 cells. Put plainly: MOLM13 viability ± coculture with HS5-GFP MSCs (MTT). Type of assay: cell-based. Conditions: Homo sapiens. As to the method:
Drug treatments were carried out for 72 hours. Details are provided in the Supplemental Methods. […]
HS5-GFP human bone marrow stromal cells were plated and cultured for 72 hours to near confluence.
MOLM13 cells were then seeded onto HS5-GFP cells to establish a co-culture. Twenty-four hours later, cells
were treated with increasing concentrations of drug for an additional 72 hours. MOLM13 and HS5-GFP cells
were then separated and MTT assay s were performed for cell viability assessment of each cell population. […]

For assay [2], the system named is human primary AML samples. The assay can be described thus: CellTiterGlo viability assay, ex vivo. The format is cell-based. As to the method: (§1) Drug treatments were carried out for 72 hours. Details are provided in the Supplemental Methods.
(§2) Cell viability of primary samples […]
For murine or human primary AML cells, 100,000 cells/well were plated in a 96-well plate and treated with increasing concentrations of drug. Cell viability, via trypan blue, was measured every 24 hours. If the viability fell below 50% or at 72 hours of treatment, whichever came earlier, cell viability of each plate was measured via CellTiter-Glo. Primary human AML cells were obtained from the OSUCCC Leukemia Tissue Bank Shared […]
Primary AML samples were analyzed by targeted gene sequencing of 80 genes, as previously described (1). Samples were pooled and analyzed on a MiSeq system using the Illuminia MiSeq Reagent Kit v3. Ill umina Isis Banded Smith Waterman aligner and hg19 genome were used to align the sequences. Single nucleotide variant (SNV) and indel calling were performed using MuTect and Varscan2. A variant allele fraction (VAF) cut-off of 0.10 was set for reporting mutations. SNV that are reported as pathogenic SNP were considered mutations.
All other SNV needed to be absent from 1000 Genome database, dsSNP137 or dsSNP142. Visual inspection of all variants was carried out using Integrative Genomics Viewer (Broad Institute) . […]
Background: ATP-based viability assays read luminescence as a measure of living cells.

Assay [3] relates to MOLM13 cells. The assay can be described thus: MTT viability assay. The format is cell-based. The settings on record: Homo sapiens, read-out: IC50 viability. The method, then:
as §1

The test system of a further assay is Ba/F3 cells GFP+IL3. The assay can be described thus: MTT viability assay. Conditions: Mus musculus, read-out: IC50 viability. Type of assay: cell-based. The method, then: as §1
In general terms: Tetrazolium assays rely on reduction of a dye to a coloured formazan, in cell work by metabolically active cells.

Another assay concerns MOLM13-RES cells. The assay can be described thus: MTT viability assay. The format is cell-based. Conditions: Homo sapiens, read-out: IC50 viability. The method, then: as §1
Assay [4] has as its system MV4-11 cells. The assay can be described thus: MTT viability assay. The format is cell-based. The settings on record: Homo sapiens, read-out: IC50 viability. The method, then: as §1
For assay [5], the system named is MOLM13 cells. The assay can be described thus: MOLM13 viability ± cytokines (MTT). Conditions: Homo sapiens.
Description: Drug treatment effects on cell lines were assessed by MTT assay (Roche Diagnostics), as previously described ([21]). […] Drug treatments were carried out for 72 hours.
The test system of assay [6] is Ba/F3 cells expressing FLT3 ITD/D835H. The assay can be described thus: MTT viability assay. Type of assay: cell-based. The settings on record: Mus musculus, read-out: IC50 viability. As to the method: as §1
Assay [7] relates to MV4-11 cells. The assay can be described thus: CFU assay with IL-3, GM-CSF or FGF2. Type of assay: cell-based, human. Conditions: 7-day MV4-11 CFU assay. As to the method:
For human primary CFU assays, cells were cultured in MethoCult H4035 Optimum without EPO (Stemcell Technologies). For mouse primary CFU assays, cells were directly cultured in MethoCult M3231 (Stemcell Technologies) supplemented with 45 ng/mL of murine IL-6 (mIL-6), mIL-3, and mSCF. Both human and mouse primary cells 10,000 cells were plated in duplicate for each drug concentration. For cell line CFU assays, MV4-11 cells were treated with drugs in the presence of 20 ng/mL IL-3, GM-CSF, or FGF2. Cells were plated in MethoCult H4230 (Stemcell Technologies) in duplicates at 250 cells/plate. Plates were placed in a 37°C incubator for 7 or 14 days for human cell lines and for mouse or human primary cells, respectively. Colonies were identified as clusters containing 40 or more cells. For CFU assays using human primary CD34^+ cells, umbilical cord blood was obtained from the OSU Comprehensive Cancer Center (CCC) Leukemia Tissue Bank Shared Resource, and mononuclear cells were isolated by using density gradient centrifugation. CD34^+ cells were purified using the CD34 UltraPure MicroBead Kit (Miltenyi Biotec) according to the manufacturer’s instructions. CFU assay with CD34^+ cells was performed as described above, and the total number of colonies were counted after 7–10 days.

The test system of assay [8] is Ba/F3 cells expressing FLT3-ITD. Put plainly: MTT viability assay. The format is cell-based. The settings on record: Mus musculus, read-out: IC50 viability. As to the method:
as §1

Assay [9] deals with Ba/F3 cells expressing FLT3 D835Y. The assay can be described thus: MTT viability assay. Type of assay: cell-based. Conditions: Mus musculus, read-out: IC50 viability. The method, then: as §1
Assay [10] has as its system Ba/F3 cells expressing FLT3-ITD/F691L. Put plainly: MTT viability assay. The settings on record: Mus musculus, BaF3, 72 hours. Type of assay: cell-based. The method, then: as §1
Assay [11] relates to Ba/F3 cells expressing FLT3 D835H. The assay can be described thus: MTT viability assay. The format is cell-based. The settings on record: Mus musculus, read-out: IC50 viability. As to the method:
as §1

For assay [12], the system named is Ba/F3 cells expressing FLT3 ITD/D835Y. The assay can be described thus: MTT viability assay. Type of assay: cell-based. Conditions: Mus musculus, read-out: IC50 viability. As to the method:
as §1

For assay [13], the system named is primary FLT3-ITD/IDH2-R140Q murine leukemia cells. Put plainly: CellTiterGlo viability assay, ex vivo. Type of assay: cell-based. Conditions: Mus musculus, 72 hours. The method, then: as §1, §2
For murine or human primary AML cells, 100,000 cells/well were plated in a 96-well plate and treated with increasing concentrations of drug. Cell viability, via trypan blue, was measured every 24 hours. If the viability fell below 50% or at 72 hours of treatment, whichever came earlier, cell viability of each plate was measured via

[14] abbreviates: MOLM-13, MOLM13 + HS5-GFP co-culture, read-out: IC50 viability.
The mark [15] stands for this setting: BaF3, Ba/F3 GFP+IL3, MTT, 72 hours.
[16] abbreviates: BaF3, Ba/F3 FLT3 ITD/D835H, MTT, 72 hours.
Setting [17] is: MOLM-13, MOLM13 alone (co-culture experiment), read-out: IC50 viability.
The mark [18] stands for this setting: sample 240: FLT3-ITD, IDH2, NPM1, read-out: IC50 viability.
The mark [19] stands for this setting: sample 370: FLT3-ITD, IDH1, NPM1, SMARCA2, read-out: IC50 viability.
[20] abbreviates: sample 0762 (762): FLT3-ITD, NRAS, KRAS, DNMT3A, NPM1, D835E, read-out: IC50 viability.
Where [21] appears, read: sample 1069: FLT3-ITD, SRSF2, IDH2, DNMT3A, read-out: IC50 viability.
Where [22] appears, read: sample 1355: FLT3-ITD, NPM1, IDH2, read-out: IC50 viability.
The mark [23] stands for this setting: MOLM-13, MOLM13, FLT3-ITD, MTT, 72 hours.
Setting [24] is: BaF3, Ba/F3 FLT3 ITD, MTT, 72 hours.
[25] abbreviates: BaF3, Ba/F3 FLT3 D835Y, MTT, 72 hours.
The mark [26] stands for this setting: BaF3, Ba/F3 FLT3 D835H, MTT, 72 hours.
Setting [27] is: MOLM13-RES, FLT3-ITD/D835Y, MTT, 72 hours.
[28] abbreviates: BaF3, Ba/F3 FLT3 ITD/D835Y, MTT, 72 hours.
The mark [29] stands for this setting: MV4-11, FLT3-ITD, MTT, 72 hours.

Structures are written as SMILES. Read-outs that look alike come from different tables or passages of the source.

Turning to `CC(C)(C)c1cc(NC(=O)Nc2ccc(-c3cn4c(n3)sc3cc(OCCN5CCOCC5)ccc34)cc2)no1` [Quizartinib, quizartinib], the IC50 with MOLM13 cells [1] (MOLM-13, read-out: IC50 viability, MOLM13 + HS5-GFP co-culture) stood at 4.7 nM; in assay [2] (read-out: IC50 viability, sample 240: FLT3-ITD, IDH2, NPM1), 238 nM; in [2] (read-out: IC50 viability, sample 370: FLT3-ITD, IDH1, NPM1, SMARCA2), 375 nM; in assay [2] (read-out: IC50 viability, sample 0762 (762): FLT3-ITD, NRAS, KRAS, DNMT3A, NPM1, D835E), 357 nM; in [2] (read-out: IC50 viability, sample 1069: FLT3-ITD, SRSF2, IDH2, DNMT3A) it was 195 nM; in assay [2] (read-out: IC50 viability, sample 1355: FLT3-ITD, NPM1, IDH2), 400 nM. Besides, the IC50 in the assay on MOLM13 cells [3] (MOLM-13, 72 h) was 2.5 nM; with Ba/F3 cells GFP+IL3 (BaF3, 72 h) it was over 10000 nM; with MOLM13-RES cells (72 h) it was 400 nM; with MV4-11 cells [4] (MV4-11, 72 h), 1.7 nM.
Turning to `CO[C@@H]1[C@H](N(C)C(=O)c2ccccc2)C[C@H]2O[C@]1(C)n1c3ccccc3c3c4c(c5c6ccccc6n2c5c31)C(=O)NC4` [Midostaurin, midostaurin], the IC50 came to 99 nM in the assay with MOLM13 cells [1] (setting [14]); 334 nM in assay [2] (sample 036: FLT3 wild-type, NRAS, IDH2, NPM1, DNMT3A, read-out: IC50 viability); 47.4 nM in the assay on MOLM13 cells [5] (MOLM-13, read-out: IC50 viability, MOLM13 + GM-CSF); 18.9 nM with MOLM13 cells [5] (MOLM-13, read-out: IC50 viability, MOLM13, no cytokine); 328 nM with Ba/F3 cells GFP+IL3 (setting [15]); 28 nM in [6] (setting [16]). The “Colony formation with IL-3, GM-CSF, or FGF2” value with MV4-11 cells [7] is recorded as “fully or partially rescued”.
Consider `CC1(COc2ccc3c(c2)ncn3-c2ccc3cccc(N4CCC(N)CC4)c3n2)COC1` [Crenolanib, crenolanib], for which the IC50 was 20 nM in the assay on MOLM13 cells [1] (setting [14]); 5 nM with MOLM13 cells [1] (setting [17]); 90 nM in assay [2] (setting [18]); 192 nM in [2] (setting [19]); 547 nM in [2] (setting [20]); 488 nM in assay [2] (setting [21]). For the same compound, the IC50 in [2] (setting [22]) worked out at 305 nM; with MOLM13 cells [3] (setting [23]) it was 7.4 nM; in [8] (setting [24]) it was 1.8 nM; in [9] (setting [25]) it was 0.068 nM; in assay [10], 58 nM; in assay [11] (setting [26]), 0.27 nM. Besides, the IC50 in the assay with Ba/F3 cells GFP+IL3 (setting [15]) worked out at 773 nM; in assay [6] (setting [16]), 38 nM; in the assay with MOLM13-RES cells (setting [27]) it was 11 nM; in [12] (setting [28]), 35 nM; in the assay on MV4-11 cells [4] (setting [29]), 6.6 nM; in assay [13] it was 3100 nM.
Take `Cc1ccc(C(=O)Nc2ccc(CN3CCN(C)CC3)c(C(F)(F)F)c2)cc1C#Cc1cnc2cccnn12` [Ponatinib, ponatinib]: the IC50 in assay [8] (BaF3, 72 h) is 2.8 nM; in [9] (BaF3, 72 h), 158 nM; in assay [10], 41.9 nM; in assay [11] (BaF3, 72 h), 89 nM; in the assay with Ba/F3 cells GFP+IL3 (BaF3, 72 h) it was 920 nM; in assay [6] (BaF3, 72 h), 126 nM. Besides, in assay [12] (BaF3, 72 h), the IC50 was determined as 106 nM.
For `CNC(=O)c1cc(Oc2ccc(NC(=O)Nc3ccc(Cl)c(C(F)(F)F)c3)cc2)ccn1` [Sorafenib, sorafenib], the IC50 in the assay on MOLM13 cells [1] (setting [14]) is 70 nM; with MOLM13 cells [1] (setting [17]) it was 14 nM; in [2] (setting [18]), 1480 nM; in [2] (setting [19]) it was 1030 nM; in assay [2] (setting [20]) it was 195 nM; in assay [2] (sample 774: FLT3-ITD, CBL, IDH1, NPM1, read-out: IC50 viability) it was 659 nM. Besides, the IC50 in assay [2] (setting [21]) was found to be 357 nM; in assay [2] (setting [22]), 3530 nM; in the assay on MOLM13 cells [3] (setting [23]) it was 26 nM; in assay [8] (setting [24]) it was 1.4 nM; in [9] (setting [25]), 233 nM; in assay [10], 1340 nM. In addition, the IC50 was 76 nM in assay [11] (setting [26]); 3850 nM in the assay with Ba/F3 cells GFP+IL3 (setting [15]); 463 nM in assay [6] (setting [16]); 1790 nM with MOLM13-RES cells (setting [27]); 3340 nM in assay [12] (setting [28]); 8 nM in the assay with MV4-11 cells [4] (setting [29]). Besides, the IC50 in [13] was over 10000 nM.
